Activity calls are given as the source filed them. The rule behind the calls is not given here.
Columns and labels:
Tyrosinase [1] = target: T1, Tyrosinase (Agaricus bisporus, UniProt O42713)
T1 sequence (O42713 whole entry): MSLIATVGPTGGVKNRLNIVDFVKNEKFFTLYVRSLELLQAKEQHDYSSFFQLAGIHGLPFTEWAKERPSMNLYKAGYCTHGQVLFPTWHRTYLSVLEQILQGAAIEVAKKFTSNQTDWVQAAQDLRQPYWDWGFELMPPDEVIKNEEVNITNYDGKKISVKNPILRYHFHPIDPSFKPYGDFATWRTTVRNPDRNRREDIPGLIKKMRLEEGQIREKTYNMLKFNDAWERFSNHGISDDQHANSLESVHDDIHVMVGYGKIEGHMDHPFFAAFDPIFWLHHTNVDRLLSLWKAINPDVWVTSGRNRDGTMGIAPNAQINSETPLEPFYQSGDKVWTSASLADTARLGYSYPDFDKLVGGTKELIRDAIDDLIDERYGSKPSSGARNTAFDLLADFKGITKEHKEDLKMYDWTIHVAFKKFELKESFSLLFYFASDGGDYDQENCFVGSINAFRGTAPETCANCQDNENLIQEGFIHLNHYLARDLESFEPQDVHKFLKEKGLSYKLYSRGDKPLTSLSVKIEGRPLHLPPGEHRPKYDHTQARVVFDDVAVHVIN
Description: Inhibition of mushroom tyrosinase

Tyrosinase [2] = target: T1, Tyrosinase; remark: listed apart in the source
Description: Non-competitive inhibition of mushroom tyrosinase

[3] = target: T2, Tyrosinase (Homo sapiens) (UniProt P14679); experiment: Ratio of kojic acid IC50 to compound IC50 for human tyrosinase
T2 sequence (whole entry): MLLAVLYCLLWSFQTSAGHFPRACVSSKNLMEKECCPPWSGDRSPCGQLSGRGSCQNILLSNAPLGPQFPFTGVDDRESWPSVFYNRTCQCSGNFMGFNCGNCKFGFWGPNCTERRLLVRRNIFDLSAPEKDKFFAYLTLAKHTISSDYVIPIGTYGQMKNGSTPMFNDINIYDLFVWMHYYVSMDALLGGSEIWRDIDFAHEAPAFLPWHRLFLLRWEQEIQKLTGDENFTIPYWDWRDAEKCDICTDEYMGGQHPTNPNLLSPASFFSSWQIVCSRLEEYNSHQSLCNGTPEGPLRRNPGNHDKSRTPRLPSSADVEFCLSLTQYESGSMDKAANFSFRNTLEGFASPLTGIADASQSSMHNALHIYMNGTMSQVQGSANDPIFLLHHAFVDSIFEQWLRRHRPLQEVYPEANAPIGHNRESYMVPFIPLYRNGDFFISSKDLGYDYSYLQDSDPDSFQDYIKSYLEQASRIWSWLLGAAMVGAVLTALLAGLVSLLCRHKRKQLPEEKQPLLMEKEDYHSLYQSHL

Tyrosinase [4] = target: T3, Tyrosinase (Homo sapiens, UniProt P14679); experiment: Inhibition of tyrosinase in human HMV-2 melanoma cells after 5 mins by spectrophotometry; type: cell-based
T3 sequence (P14679 whole entry): T2 sequence (whole entry)

[5] = target: T2, Tyrosinase (Homo sapiens); experiment: Inhibition of tyrosinase in human G-361 cells at >200 uM incubated for 10 mins measured for 2 hrs by MBTH-based spectrophotometry; type: cell-based
Tyrosinase [6] = target: T3, Tyrosinase
Description: (§1) Competitive inhibition of tyrosinase in human G-361 cells incubated for 10 mins measured for 2 hrs by MBTH-based spectrophotometry

[7] = target: T2, Tyrosinase (Homo sapiens); details: G-361
Description: as §1

## O=c1cc(-c2ccc(O)c(O)c2)oc2c(O)c(O)ccc12
Tyrosinase [1]
  IC50: 0.07 µM

## CCCCC/C=C\C/C=C\CCCCCCCC(=O)OCC(COC(=O)CCCCCCC/C=C\C/C=C\CCCCC)OC(=O)CCCCCCC/C=C\C/C=C\CCCCC
Tyrosinase [2]
  IC50: 8.4 µM

## O=C(NCCc1c[nH]c2cc(O)ccc12)c1cc(O)cc(O)c1
[3]
  Ratio IC50: 34.1
Tyrosinase [4]
  IC50: 9.1 µM

## CC(C)c1ccccc(=O)c1O [ALPHA-THUJAPLICIN]
[3]
  Ratio IC50: < 0.57
[5]
  inhibition: Active
Tyrosinase [6]
  IC50: > 1000 µM

## CC(C)c1ccc(O)c(=O)cc1 [GAMMA-THUJAPLICIN]
[3]
  Ratio IC50: 497
[7]
  inhibition: Dose-dependent effect
Tyrosinase [6]
  IC50: 1.15 µM

## CC(C)c1cccc(=O)c(O)c1 [HINOKITIOL]
[3]
  Ratio IC50: 63.6
[7]
  inhibition: Dose-dependent effect
Tyrosinase [6]
  IC50: 8.98 µM

## O=Cc1ccc(O)c(O)c1 [PROTOCATECHUALDEHYDE]
Tyrosinase [1]
  IC50: 2.9 µM

## CCCCCCCC/C=C\CCCCCCCC(=O)OCC(COC(=O)CCCCCCC/C=C\CCCCCCCC)OC(=O)CCCCCCC/C=C\CCCCCCCC [TRIOLEIN]
Tyrosinase [2]
  IC50: 30 µM

Reference: ChEMBL document CHEMBL3352108, “Structure-activity relationships of the thujaplicins for inhibition of human tyrosinase” (Bioorg Med Chem, 2014)
